Counter-ions that a name gives are not always drawn.
Key:
[1] = in vivo
[2] = in vivo; remark: listed apart in the source
From the text: The utility of the salts, in a clinical treating sense, is equivalent to TNCA itself but they are far more useful, practically, for the reasons of amelioration of side effects and the high blood levels available via the oral route.

[3] = pH of a 5% aqueous solution of the salt; format: physicochemical
[4] = system: rats made hypercalcemic by the injection of Leydig-cell carcinoma-tumor material; assay: Reduction of blood calcium levels of rats made hypercalcemic by injection of Leydig-cell carcinoma-tumor material; format: in vivo
Experimental: The following tables (Experiments I and II) illustrate the effectiveness of the present invention in reducing the blood calcium levels of rats made hypercalcemic by the injection of Leydig-cell carcinoma-tumor material. For details of the methodology employed in these studies, see: Johannesson et al., Endocrinology 117/4: 1508-1511 (1985). Normal calcium blood levels are in the range of 9-10 mg/dL.
In the table, n=number of rats evaluated at each dosage and in controls while S.D.=standard deviation. These higher initial values reflect Leydig cell-induced hypercalcemia. Data for final calcium levels show the decreases in calcium levels produced following administration of the lysine salt of TNCA.

[5] = Solubility in water and organic solvents
[6] = Acute toxicity (LD50) by oral route and by injection; conditions: mouse, in vivo
mice [7] = assay: as above; conditions: oral vs intraperitoneal
pK = format: physicochemical
mice [8] = conditions: cited from earlier work

SMILES: O=C(O)c1cc2ccccc2s1 [Example 1, Benzo(b)thiophene-2-carboxylic acid L-Lysine salt]
- Gastric irritation [1]: prevents the adverse effects associated with gastric irritation
- Absorption from the gastrointestinal tract / following oral administration [2]: readily absorbed following oral administration
- pH of a 5% aqueous solution [3]: 5.75
- Initial calcium levels (mean) ([4]; Experiment 1, 195 mg/kg group, N=8, initial (before treatment)): 12.28 mg/dL
- Final calcium levels (mean) ([4]; Experiment 1, 195 mg/kg, N=8, control 17.38): 14.85 mg/dL
- Initial calcium levels (mean) ([4]; Experiment 1, 292 mg/kg group, N=9, initial (before treatment)): 13.31 mg/dL
- Final calcium levels (mean) ([4]; Experiment 1, 292 mg/kg, N=9, control 17.38): 11.54 mg/dL
- Initial calcium (mean) ([4]; Experiment 2, 195 mg/kg group, N=6, initial (before treatment)): 14.07 mg/dL
- Final calcium levels (mean) ([4]; Experiment 2, 195 mg/kg, N=6, control 18.03): 13.27 mg/dL
- Initial calcium (mean) ([4]; Experiment 2, 292 mg/kg group, N=6, initial (before treatment)): 14.68 mg/dL
- Final calcium levels (mean) ([4]; Experiment 2, 292 mg/kg, N=6, control 18.03): 11.00 mg/dL
- Initial calcium (mean) ([4]; Experiment 2, 389 mg/kg group, N=10, initial (before treatment)): 13.80 mg/dL
- Final calcium levels (mean) ([4]; Experiment 2, 389 mg/kg, N=8, control 18.03): 10.16 mg/dL
- Decrease in calcium levels, dose relation ([4]; Experiments 1 and 2): clearly does-related in both experiments
- Type of calcium-lowering activity ([4]; Experiments 1 and 2): anti-hypercalcemic, rather than hypocalcemic
- Serum calcium levels following treatment ([4]; relative to pretreatment / normal levels): returned to pretreatment levels, but not to below normal values
- Solubility in ethanol (ethyl alcohol) [5]: insoluble
- Solubility in methanol (methyl alcohol) [5]: insoluble
- Solubility in toluene ([5]; toluene): insoluble
- solubility ([5]; water): 700 mg/mL
- LD50 [6]: ~1300 mg/kg
- LD50 ([6]; po): ~1500 mg/kg
- LD50 given orally compared to that obtained when administered intraperitoneally (mice [7]): almost equivalent

SMILES: O=C(O)c1cc2ccccc2s1 [Example 2]
- pH of a 5% aqueous solution [3]: 6.77
- Water solubility (in words) ([5]; water): water-soluble

SMILES: O=C(O)c1cc2ccccc2s1 [Example 3, Ammonium salt of TNCA]
- pH of a 5% aqueous solution [3]: 6.05
- Water solubility (in words) ([5]; water): water-soluble

SMILES: O=C(O)c1cc2ccccc2s1 [Example 4, Arginine salt of TNCA]
- pH of a 5% aqueous solution [3]: 5.8
- Solubility in ethanol (ethyl alcohol) [5]: soluble
- Solubility in methanol (methyl alcohol) [5]: soluble
- Water solubility (in words) ([5]; water): water-soluble

SMILES: O=C(O)c1cc2ccccc2s1 [Example 5, Piperidine salt of TNCA]
- pH of a 5% aqueous solution [3]: 6.4
- Water solubility (in words) ([5]; water): moderately water-soluble

SMILES: O=C(O)c1cc2ccccc2s1 [Example 6, Sodium salt of TNCA]
- Water solubility (in words) ([5]; water): water-insoluble
- Water solubility (in words) ([5]; water, listed as sodium): mainly insoluble in water

SMILES: O=C(O)c1cc2ccccc2s1 [Example 7]
- Water solubility (in words) ([5]; water): water-insoluble

SMILES: C[C@H](N)C(=O)O [L-alanine]
- Water solubility (in words) ([5]; water): No water-soluble reaction product is formed

SMILES: O=C(O)c1cc2ccccc2s1 [TNCA, benzo(b)thiophene-2-carboxylic acid, reference compound]
- Gastric irritation [1]: causes gastric irritation, resulting in vomiting and bleeding
- Absorption from the gastrointestinal tract / following oral administration [2]: poorly absorbed from the gastrointestinal tracts
- pKa (pK): 3.4
- LD50 by injection (mice [8]; by injection, value repeated in text): 1.45 g/kg
- LD50 (mice [8]; mice, oral, TNCA in gum tragacanth): 3.6 g/kg
- Solubility in methanol (methyl alcohol) [5]: soluble in methanol

SMILES: O=C(O)c1cc2ccccc2s1 [potassium, potassium salt of TNCA]
- Water solubility (in words) ([5]; water): mainly insoluble in water
